Results as given in ChEMBL document CHEMBL2406933, “Discovery of Protein-Protein Interaction Inhibitors of Replication Protein A” (ACS Med Chem Lett, 2013).
Activity calls are given as the source filed them. The calls are words filed in the database; no cut-off is given here.

Tests used:
[1] = biological target: T1, Replication protein A 70 kDa DNA-binding subunit (Homo sapiens, UniProt P27694); test: Binding affinity to human RPA70N assessed as inhibition of interaction with FITC-Ahx-DFTADDLEELDTLAS-NH2 after 1 hr by fluorescence polarization anisotropy assay
T1 sequence (P27694 whole entry): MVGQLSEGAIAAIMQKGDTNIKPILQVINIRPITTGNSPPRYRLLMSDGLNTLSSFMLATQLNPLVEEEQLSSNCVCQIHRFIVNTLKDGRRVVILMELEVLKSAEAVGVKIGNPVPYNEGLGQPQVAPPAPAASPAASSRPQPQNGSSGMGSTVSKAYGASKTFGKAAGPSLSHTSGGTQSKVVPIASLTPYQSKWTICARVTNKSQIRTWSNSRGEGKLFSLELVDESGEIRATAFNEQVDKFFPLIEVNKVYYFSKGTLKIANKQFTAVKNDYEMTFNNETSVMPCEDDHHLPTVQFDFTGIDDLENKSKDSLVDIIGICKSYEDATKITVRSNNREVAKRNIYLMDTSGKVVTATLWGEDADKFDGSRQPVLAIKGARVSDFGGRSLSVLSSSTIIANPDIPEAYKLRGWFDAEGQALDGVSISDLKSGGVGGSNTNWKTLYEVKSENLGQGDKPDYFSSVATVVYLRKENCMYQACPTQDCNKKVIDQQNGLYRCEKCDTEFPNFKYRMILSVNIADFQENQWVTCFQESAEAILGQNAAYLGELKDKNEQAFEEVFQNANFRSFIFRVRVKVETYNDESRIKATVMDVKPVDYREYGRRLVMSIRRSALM

[2] = biological target: T1, Replication protein A 70 kDa DNA-binding subunit; test: Binding affinity to human RPA (1 to 422) containing RPA70N and RPA70NAB assessed as inhibition of interaction with FITC-Ahx-DFTADDLEELDTLAS-NH2 after 1 hr by fluorescence polarization anisotropy assay
Homo sapiens = organism: Homo sapiens; test: Inhibition of full length RPA (unknown origin) binding to ssDNA up to 100 uM preincubated for 5 mins prior to substrate addition measured after 30 mins by EMSA
[3] = Inhibition of human RPA binding to [32P]-ssDNA overexpressed in Escherichia coli by EMSA
[4] = biological target: T1, Replication protein A 70 kDa DNA-binding subunit; test: Binding affinity to human RPA70N expressed in Escherichia coli BL21 (DE3) assessed as inhibition of interaction with FITC-Ahx-DFTADDLEELDTLAS-NH2 after 1 hr by fluorescence polarization anisotropy assay

Structure (SMILES) | Kd [1] | further results
O=C(O)c1cc2ccc(-n3c(-c4ccc(F)cc4)n[nH]c3=S)cc2s1 | > 250 µM | 
O=C(O)c1sc2cc(Cl)ccc2c1Cl | 627 µM | 
Cc1cccc(-c2n[nH]c(=S)n2-c2ccc3c(Cl)c(C(=O)O)sc3c2)c1 | 83 µM | 
O=C(O)c1sc2cc(-n3c(S)nnc3-c3cccc(Br)c3)ccc2c1Cl | 58 µM | 
O=C(O)c1cc2ccc(-n3c(S)nnc3-c3ccc(Cl)cc3)cc2s1 | 78 µM | 
O=C(O)CSc1nnc(-c2ccccc2Br)n1-c1cccc(Cl)c1 | > 250 µM | 
O=C(O)CSc1nnc(-c2cc3ccccc3s2)n1-c1ccc(Cl)c(Cl)c1 | 58 µM | 
O=C(O)CSc1nnc(-c2sc3ccccc3c2Cl)n1-c1ccccc1 | 135 µM | 
COc1ccc(-c2nnc(SCC(=O)O)n2-c2ccc(Cl)c(Cl)c2)cc1 | 164 µM | 
Cc1ccccc1-c1nnc(S)n1-c1ccc2cc(C(=O)O)sc2c1 | > 250 µM | 
Cc1ccc(-c2nnc(S)n2-c2ccc3cc(C(=O)O)sc3c2)cc1 | > 250 µM | 
O=C(O)c1cc2ccc(-n3c(S)nnc3-c3ccccc3)cc2s1 | > 250 µM | 
Nc1ccc(-c2nnc(SCC(=O)O)n2-c2ccc(Cl)c(Cl)c2)cc1 | 109 µM | 
COc1ccc(-c2nnc(SCC(=O)O)n2-c2ccc(Cl)cc2)cc1 | > 250 µM | 
O=C(O)c1cc2ccc(-n3c(-c4ccc(Br)cc4)n[nH]c3=S)cc2s1 | 71 µM | 
Cc1ccccc1-c1nnc(SCC(=O)O)n1-c1cccc(Cl)c1 | > 250 µM | 
CCOc1ccc2cc(C3CN(C(=O)CCC(=O)O)N=C3c3ccc(Br)cc3)c(Cl)nc2c1 (centres undefined) |  | IC50 [3]: 40 µM
O=C(O)CSc1nnc(-c2ccccc2Cl)n1-c1cccc(Cl)c1 | > 250 µM | 

Structure (SMILES) | Kd [1] | further results
Cc1ccc(-c2n[nH]c(=S)n2-c2ccc3c(Cl)c(C(=O)O)sc3c2)cc1 | 92 µM | 
O=C(O)c1sc2cc(-n3c(-c4cccc(Oc5ccccc5)c4)n[nH]c3=S)ccc2c1Cl | 63 µM | 
O=C(O)CSc1nnc(-c2ccc(F)cc2)n1-c1cccc(Cl)c1 | > 250 µM | 
Clc1ccc(-c2nn[nH]n2)cc1 | 1850 µM | 
O=C(O)c1cc2ccc(-n3c(-c4cccc(Oc5ccccc5)c4)n[nH]c3=S)cc2s1 | 104 µM | 
O=C(O)CSc1nnc(-c2ccc(O)cc2)n1-c1ccc(Cl)c(Cl)c1 | 233 µM | 
O=C(O)c1sc2cc(-n3c(S)nnc3-c3c[nH]c4ccccc34)ccc2c1Cl | > 250 µM | 
O=C(O)CSc1nnc(-c2ccc(F)cc2)n1-c1ccc(Cl)cc1 | > 250 µM | 
CC(C)C1=C[C@]23CC[C@@H]4[C@](C)(CCC[C@@]4(C)C(=O)O)[C@H]2C[C@@H]1[C@@H](C(=O)O)[C@@H]3C(=O)O |  | Kd [4]: 18.3 µM
Cc1ccccc1-c1nnc(S)n1-c1ccc2c(Cl)c(C(=O)O)sc2c1 | 66 µM | 
Cc1cccc(-c2n[nH]c(=S)n2-c2ccc3c(Cl)c(C(=O)O)sc3c2)c1Br | 48 µM | 
O=C(O)c1cc2ccc(-n3c(-c4cccc(Br)c4)n[nH]c3=S)cc2s1 | 49 µM | 
O=C(O)c1sc2cc(-n3c(S)nnc3-c3ccccc3)ccc2c1Cl | 130 µM | 
COc1ccc(-c2nnc(SCC(=O)O)n2-c2cccc(Cl)c2)cc1 | > 250 µM | 
O=C(O)c1sc2cc(-n3c(S)nnc3-c3ccc(Cl)cc3)ccc2c1Cl | 52 µM | 
O=C(O)CSc1nnc(-c2ccc([N+](=O)[O-])cc2)n1-c1ccc(Cl)c(Cl)c1 | 178 µM | 
Cc1cccc(-c2n[nH]c(=S)n2-c2ccc3cc(C(=O)O)sc3c2)c1 | > 250 µM | 

More lines, main results first:

Kd [1] | Structure (SMILES) | further results
11 µM | O=C(O)c1sc2cc(-n3c(S)nnc3-c3ccc(Br)c(Cl)c3)ccc2c1Cl | Kd [2]: 10 µM; inhibition (Homo sapiens): inactive
35 µM | O=C(O)c1cc2ccc(-n3c(-c4cc(Cl)cc(Cl)c4)n[nH]c3=S)cc2s1 | 
47 µM | O=C(O)CSc1nnc(-c2ccc3ccccc3c2)n1-c1ccc(Cl)c(Cl)c1 | 
47 µM | O=C(O)c1sc2cc(-n3c(S)nnc3-c3ccc(F)cc3)ccc2c1Cl | 
11 µM | O=C(O)c1sc2cc(-n3c(S)nnc3-c3ccc(Cl)c(Cl)c3)ccc2c1Cl | Kd [2]: 17 µM; inhibition (Homo sapiens): inactive
25 µM | O=C(O)c1sc2cc(-n3c(S)nnc3C3CCCCC3)ccc2c1Cl | 
15 µM | O=C(O)c1sc2cc(-n3c(-c4cc(Cl)cc(Cl)c4)n[nH]c3=S)ccc2c1Cl | 
46 µM | O=C(O)CSc1nnc(-c2sc3ccccc3c2Cl)n1-c1ccc(Cl)c(Cl)c1 | 
18 µM | Cc1ccc2c(Cl)c(-c3nnc(SCC(=O)O)n3-c3ccc(Cl)c(Cl)c3)sc2c1 | 
16 µM | O=C(O)c1sc2cc(-n3c(-c4ccc(Cl)c(Br)c4)n[nH]c3=S)ccc2c1Cl | 
12 µM | O=C(O)c1cc2ccc(-n3c(S)nnc3-c3ccc(Br)c(Cl)c3)cc2s1 | 
31 µM | Cc1cc(-c2nnc(S)n2-c2ccc3c(Cl)c(C(=O)O)sc3c2)ccc1Br | 
42 µM | O=C(O)c1sc2cc(-n3c(S)nnc3-c3ccc(Br)cc3)ccc2c1Cl | 
22 µM | O=C(O)c1cc2ccc(-n3c(S)nnc3-c3ccc(Cl)c(Cl)c3)cc2s1 | 
43 µM | O=C(O)c1sc2cc(-n3c(-c4ccc5ccccc5c4)n[nH]c3=S)ccc2c1Cl | 
